Data on four molecules can be found in PMC8878324, “Evaluation of New Antimicrobial Agents Based on tris(1H-Indol-3-yl)methylium Salts: Activity, Toxicity, Suppression of Experimental Sepsis in Mice” (Pharmaceuticals, 2022).

Common to all, as to assay: MIC by broth microdilution
What all share (format): cell-based

In experiment [1] the test system is Proteus vulgaris ATCC 13315. To be noted: ATCC13315. As to the method:
(§1) We have tested the antimicrobial activity in vitro of over 100 tris(indolyl)methane derivatives against 16 strains of Gram-positive, Gram-negative bacteria and fungi including either sensitive or drug-resistant strains from ATCC, as well as resistant clinical isolates from the culture collection of the Laboratory for Control of Hospital Infections (Sechenov University, Moscow, Russia). The minimum inhibitory concentrations (MICs) were determined by the microdilution method in a cation-adjusted Müller–Hinton medium for bacteria and in a liquid culture medium RPMI 1640 with L-glutamine without sodium bicarbonate for fungi in accordance with the requirements of the Institute of Clinical and Laboratory Standards (CLSI/NCCLS). […] As a rule, their activity against Gram-negative bacteria was usually not that high. […] For comparison, the antimicrobial activity of prototype 4 is shown. The antibacterial antibiotic levofloxacin and the antifungal amphotericin B were used as reference drugs (Table 1).
(§2) The synthesis of compounds and the scheme of their preparation and purification, as well as physicochemical characteristics, were described earlier. To evaluate the biological activity in vitro, the compounds were dissolved in DMSO at a concentration of 2.0–6.4 mg/mL, followed by preparation of two-fold dilutions in the same solvent, if necessary. The solutions were further diluted in an aqueous medium for the final concentration of DMSO not to exceed 1%, and the concentration of the compounds ranged from 64.0 to 0.13 μg/mL. To study compounds in vivo, solutions for intravenous administration in 5% glucose solution were prepared. Solutions were sterilized by filtration through 0.22 µm filters (Millipore, Burlington, MA, USA).
(§3) Strains of Gram-positive, Gram-negative bacteria and fungi including sensitive or drug-resistant strains from ATCC, as well as resistant clinical isolates from the culture collection of the Laboratory for Control of Hospital Infections (Sechenov University, Moscow, Russia), were used. Clinical isolates of Gram-positive bacteria Staphylococcus aureus 5 (MRSA), Staphylococcus aureus 10, Staphylococcus aureus 100KC (MRSA), Staphylococcus epidermidis 533, Staphylococcus haemoliticus 585 and Enterococcus faecium 569, as well as collection cultures of Gram-positive bacteria Staphylococcus aureus ATCC 700699, Staphylococcus aureus ATCC 25923, Staphylococcus aureus ATCC 3798 and collection cultures of Gram-negative bacteria Escherichia coli ATCC 25922, Klebsiella pneumoniae ATCC 13883, Proteus vulgaris ATCC 13315, Salmonella cholerasuis ATCC 14028, Pseudomonas aeruginosa ATCC 27853 and collection cultures of the yeast Candida albicans ATCC 14053 and the fungi Aspergillus niger ATCC 16404 were used. To grow the microorganisms, we used Trypticase Soy Agar (TSA, Sigma-Aldrich Co., Burlington, MA, USA). Trypticase Soy Agar, BBL, was used for cultivation of Staphylococcus spp. and E. coli. For cultivation of Enterococcus spp. and P. aeruginosa we used a ready-made dry medium Columbia Agar Base, BBL. The media were sterilized by autoclaving at 121 °C for 15 min. Yeast culture C. albicans was grown on Sabouraud agar (peptone—10 g, glucose—40 g, agar—20 g, distilled water—1 L, pH 6.0), and filamentous fungi A. niger was grown on potato–glucose agar (potatoes—200 g, glucose—20 g, agar—15 g, distilled water—1 L, pH 5.5–6.0).
(§4) To determine the antibacterial effect, a liquid Müller–Hinton medium (Becton, Dickinson and Company, Cockeysville, MD, USA) was used; to determine the effect of compounds on fungi we used RPMI 1640 medium with L-glutamine, without sodium bicarbonate, which was prepared from a dry medium (ICN Biomedicals Inc., Costa Mesa, CA, USA) by dilution in distilled water, subsequent buffering with 0.165 M of morpholinepropanesulfonic acid (MOPS, Acros Organics B.V.B.A., Morris Plains, NJ, USA) and adjusting the pH of the medium to 7.0 by adding 1 N of NaOH solution. […]

The subject of experiment [2] is Escherichia coli ATCC 25922. The conditions noted are these: ATCC25922. As to the method:
as §1, §2, §3, §4

Experiment [3] has as its system Staphylococcus haemoliticus 585. The conditions noted are these: for MIC: Staphylococcus haemoliticus 585. How it is done:
as §1, §2, §3, §4

The subject of experiment [4] is Enterococcus faecium 569. To be noted: for MIC: Enterococcus faecium 569; for activity against Enterococcus faecium 569: in words, strain resistant to cefuroxime, clindamycin, gentamycin, vancomycin and doxycycline. As to the method: as §1, §2, §3, §4
The test system of experiment [5] is Staphylococcus aureus ATCC 700699. To be noted: ATCC700699. How it is done:
as §1, §2, §3, §4

Experiment [6] deals with Staphylococcus aureus 10. As to the method:
as §1, §2, §3, §4

Experiment [7] concerns Salmonella cholerasuis ATCC 14028. The conditions noted are these: ATCC14028. As to the method:
as §1, §2, §3, §4

In experiment [8] the test system is Klebsiella pneumoniae ATCC 13883. To be noted: ATCC13883. As to the method:
as §1, §2, §3, §4

Experiment [9] relates to Pseudomonas aeruginosa ATCC 27853. The conditions noted are these: ATCC27853. As to the method:
as §1, §2, §3, §4

For experiment [10], the system named is Staphylococcus epidermidis 533. How it is done: as §1, §2, §3, §4
Experiment [11] has as its system Staphylococcus aureus ATCC 25923. The conditions noted are these: ATCC25923. As to the method:
as §1, §2, §3, §4

In experiment [12] the test system is Staphylococcus aureus 5. The conditions noted are these: Staphylococcus aureus 5 (MRSA). As to the method:
as §1, §2, §3, §4

Experiment [13] relates to Staphylococcus aureus ATCC 3798. To be noted: ATCC3798. How it is done:
as §1, §2, §3, §4

The test system of experiment [14] is Staphylococcus aureus 100KC. The conditions noted are these: Staphylococcus aureus 100KC (MRSA). As to the method: as §1, §2, §3, §4

≈ marks a conversion by molar mass, not a printed value.

For the molecule `OCCCCCn1cc([C+](c2cn(CCCCCO)c3ccccc23)c2cn(CCCCCO)c3ccccc23)c2ccccc21.[Cl-]` [Compound 1, tris(1-(5-Hydroxypentyl)-1H-indol-3-yl) methylium chloride], the MIC in [1] stood at 64 µg/mL; in [2], 8 µg/mL; in experiment [3] it was 4 µg/mL; in [4] it was 8 µg/mL; in experiment [5], 2 µg/mL; in experiment [6] it was 1 µg/mL. The MIC in experiment [7] is more than 64 µg/mL; in experiment [8], 2 µg/mL; in experiment [9] it was more than 64 µg/mL; in experiment [10], 1 µg/mL; in [11], 2 µg/mL; in experiment [12], 4 µg/mL. The MIC in experiment [13] and in experiment [14] was 2 µg/mL each time. In experiment [4], the “activity against Enterococcus faecium 569” value was “reduced activity”.

Take `CCCn1cc([C+](c2cn(CCC)c3ccccc23)c2cn(C3=C(N)C(=O)NC3=O)c3ccccc23)c2ccccc21.[Cl-]` [Compound 2, (1-(4-Amino-2,5-dioxo-2,5-dihydro-1H-pyrrol-3-yl)-1H-indol-3-yl)bis(1-propyl-1H-indol-3-yl) methylium chloride]: the MIC in experiment [1] was 16 µg/mL; in experiment [2] it was more than 64 µg/mL; in experiment [3], 2 µg/mL; in experiment [4], 8 µg/mL; in experiment [5] it was 0.5 µg/mL; in experiment [6], 0.5 µg/mL. The MIC in experiment [7] was more than 64 µg/mL; in experiment [8] it was more than 64 µg/mL; in experiment [9], 32 µg/mL; in experiment [10], 0.5 µg/mL; in experiment [11], 0.5 µg/mL; in experiment [12], 0.25 µg/mL. Also, the MIC was determined as 0.25 µg/mL in experiment [13] and 0.5 µg/mL in experiment [14].

Turning to `CCCn1cc([C+](c2cn(CCC)c3ccccc23)c2cn(C3=C(N(C)C)C(=O)NC3=O)c3ccccc23)c2ccccc21` [Compound 3, 1-(4-Dimethylamino-2,5-dioxo-2,5-dihydro-1H-pyrrol-3-yl) -1H-indol-3-yl) bis(1-propyl-1H-indol-3-yl) methylium chloride], the MIC is more than 64 µg/mL in [1]; 16 µg/mL in [2]; more than 64 µg/mL in [3]; more than 64 µg/mL in experiment [4]; 0.13 µg/mL in experiment [5]; 0.25 µg/mL in experiment [6]. Further, the MIC in experiment [7] was more than 64 µg/mL; in experiment [8] it was more than 64 µg/mL; in experiment [9], 16 µg/mL; in experiment [10] it was 0.5 µg/mL; in experiment [11], 0.13 µg/mL; in [12] it was 0.5 µg/mL. The MIC in experiment [13] and in [14] was 0.13 µg/mL each time. Further, in [3] (in words, clinical isolate resistant to penicillins, aminoglycosides and erythromycin), the “activity against Staphylococcus haemoliticus 585” value is “not active”. The “activity against Enterococcus faecium 569” value in experiment [4] is “inactive”.

`C[C@H]1COc2c(N3CCN(C)CC3)c(F)cc3c(=O)c(C(=O)O)cn1c23` [Levofloxacin, levofloxacin, reference compound]: the MIC in experiment [1] was 4 µg/mL (≈ 11.1 µM); in experiment [2], 0.06 µg/mL (≈ 0.166 µM); in experiment [3] it was 0.5 µg/mL (≈ 1.38 µM); in experiment [4], 1 µg/mL (≈ 2.77 µM); in experiment [5] it was 16 µg/mL (≈ 44.3 µM); in experiment [6], 0.13 µg/mL (≈ 0.36 µM). In addition, the MIC in [7] was 0.13 µg/mL (≈ 0.36 µM); in experiment [8], 0.25 µg/mL (≈ 0.692 µM); in experiment [9], 1 µg/mL (≈ 2.77 µM); in [10], 0.5 µg/mL (≈ 1.38 µM); in experiment [11], 0.25 µg/mL (≈ 0.692 µM); in experiment [12] it was 0.25 µg/mL (≈ 0.692 µM). For the same molecule, the MIC in experiment [13] and in [14] was 32 µg/mL (≈ 88.6 µM) throughout.
